Reference: PubChem BioAssay AID328 (DTP/NCI, 2004)
Where “and” joins values, the source holds several entries; their conditions need not be identical. Equal entries are not always repeated. Inconclusive results and toxic doses are left out.

Tested on: BDF1 mice, P388 leukemia ip, median survival T/C
Assay: NCI In Vivo Anticancer Drug Screen. Data for tumor model P388 Leukemia (intraperitoneal) in B6D2F1 (BDF1) mice
Settings: endpoint: median survival time, higher = longer survival
In short: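 Compound-treated tumour-bearing mice were compared with vehicle-treated controls. Survival was recorded, and the value is the treated-group measurement divided by the control-group measurement (T/C).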

[1] = dose: 50.0 mg/kg/injection, schedule: Q01DX009 (ip), vehicle: saline
[2] = dose: 50.0 mg/kg/injection, schedule: Q04DX003 (ip), vehicle: saline
[3] = dose: 100.0 mg/kg/injection, schedule: Q01DX009 (ip), vehicle: saline
[4] = dose: 100.0 mg/kg/injection, schedule: Q04DX003 (ip), vehicle: saline
[5] = dose: 200.0 mg/kg/injection, schedule: Q04DX003 (ip), vehicle: saline
[6] = dose: 100.0 mg/kg/injection, schedule: Q04DX003 (ip), vehicle: saline with Tween-80
[7] = dose: 200.0 mg/kg/injection, schedule: Q04DX003 (ip), vehicle: saline with Tween-80
[8] = dose: 100.0 mg/kg/injection, schedule: Q01DX009 (ip), vehicle: saline with Tween-80
[9] = dose: 200.0 mg/kg/injection, schedule: Q01DX009 (ip), vehicle: saline with Tween-80
[10] = dose: 50.0 mg/kg/injection, schedule: Q01DX009 (ip), vehicle: Klucel (hydroxypropylcellulose) (HPC)
[11] = dose: 100.0 mg/kg/injection, schedule: Q01DX009 (ip), vehicle: Klucel (hydroxypropylcellulose) (HPC)
[12] = dose: 50.0 mg/kg/injection, schedule: Q01DX009 (ip), vehicle: saline with Tween-80

SMILES: Cc1c(C(=O)O)cc2n(c1=O)Cc1cc3ccccc3nc1-2
- T/C [1]: 95 % of control
- T/C [2]: 92 % of control
- T/C [3]: 113 % of control
- T/C [4]: 100 % of control
- T/C (dose: 200.0 mg/kg/injection, schedule: Q01DX009 (ip), vehicle: saline): 100 % of control
- T/C [5]: 96 % of control

SMILES: CC1CCCC2(CN=C(Nc3ccccc3)O2)C1 (stereo unspecified)
- T/C (dose: 100.0 mg/kg/injection, schedule: Q01DX001 (ip), vehicle: Klucel (hydroxypropylcellulose) (HPC)): 99 % of control
- T/C (dose: 200.0 mg/kg/injection, schedule: Q01DX001 (ip), vehicle: Klucel (hydroxypropylcellulose) (HPC)): 114 % of control

SMILES: O=C(Nc1cccc(Cl)c1)Nc1ccccc1Cl
- T/C [6]: 97 % of control
- T/C [7]: 108 % of control
- T/C (dose: 400.0 mg/kg/injection, schedule: Q04DX003 (ip), vehicle: saline with Tween-80): 91 % of control

SMILES: O=C(Nc1ncn[nH]1)C(=O)Nc1ncn[nH]1
- T/C [8]: 102 % of control
- T/C [9]: 100 % of control

SMILES: COC(=O)CSc1ncc2cnccn12
- T/C (dose: 100.0 mg/kg/injection, schedule: Q04DX003 (ip), vehicle: water): 109 % of control
- T/C (dose: 200.0 mg/kg/injection, schedule: Q04DX003 (ip), vehicle: water): 100 % of control
- T/C (dose: 400.0 mg/kg/injection, schedule: Q04DX003 (ip), vehicle: water): 109 % of control

SMILES: Nc1ccc(C(=O)Nc2ccc(N(CCCl)CCCl)cc2)cc1
- T/C (dose: 12.5 mg/kg/injection, schedule: Q01DX009 (ip), vehicle: saline): 108 % of control
- T/C (dose: 25.0 mg/kg/injection, schedule: Q04DX003 (ip), vehicle: saline): 152 % of control
- T/C [1]: 173 % of control
- T/C [2]: 216 % of control
- T/C [3]: 170 % of control
- T/C (dose: 150.0 mg/kg/injection, schedule: Q01DX009 (ip), vehicle: saline): 92 % of control

SMILES: CC[C@H](CC[C@@H](C)[C@H]1CC[C@H]2[C@@H]3CC=C4C[C@@H](OC(=O)CN5CCNCC5)CC[C@]4(C)[C@H]3CC[C@]12C)C(C)C
- T/C [10]: 104 % of control
- T/C [11]: 104 % of control

SMILES: CC(=O)OCC(OC(C)=O)C(OC(C)=O)C(OC(C)=O)C1COC(C)(C)O1 (stereo unspecified)
- T/C (dose: 75.0 mg/kg/injection, schedule: Q01DX009 (ip), vehicle: saline with Tween-80): 94 % of control
- T/C (dose: 150.0 mg/kg/injection, schedule: Q01DX009 (ip), vehicle: saline with Tween-80): 86 % of control
- T/C (dose: 300.0 mg/kg/injection, schedule: Q01DX009 (ip), vehicle: saline with Tween-80): 91 % of control

SMILES: COc1ccc(OC)c2c(/C=C/c3ccc(N(C)C)cc3)ccnc12
- T/C (dose: 12.5 mg/kg/injection, schedule: Q01DX009 (ip), vehicle: saline with Tween-80): 108 % of control
- T/C (dose: 25.0 mg/kg/injection, schedule: Q01DX009 (ip), vehicle: saline with Tween-80): 103 % of control
- T/C [12]: 94 % of control and 110 % of control
- T/C [8]: 103 % of control
- T/C [9]: 91 % of control

SMILES: CCN(CC)CC(COC)Oc1cc(C)ccc1C(C)C (stereo unspecified)
- T/C [12]: 100 % of control
- T/C [8]: 91 % of control

SMILES: COc1cccc2c1CCC1=C2CC=C2CC3(CCC21C)OCCO3 (stereo unspecified)
- T/C (dose: 5.0 mg/kg/injection, schedule: Q04DX003 (sc), vehicle: steriod suspending solution): 109 % of control
- T/C (dose: 10.0 mg/kg/injection, schedule: Q04DX003 (sc), vehicle: steriod suspending solution): 104 % of control
- T/C (dose: 20.0 mg/kg/injection, schedule: Q04DX003 (sc), vehicle: steriod suspending solution): 118 % of control

SMILES: CC(/C=N/NC(N)=S)Cc1ccc(C(C)C)cc1 (stereo unspecified)
- T/C (dose: 7.0 mg/kg/injection, schedule: Q01DX009 (ip), vehicle: saline with Tween-80): 110 % of control
- T/C (dose: 7.0 mg/kg/injection, schedule: Q04DX003 (ip), vehicle: saline with Tween-80): 100 % of control
- T/C (dose: 14.0 mg/kg/injection, schedule: Q01DX009 (ip), vehicle: saline with Tween-80): 115 % of control
- T/C (dose: 14.0 mg/kg/injection, schedule: Q04DX003 (ip), vehicle: saline with Tween-80): 104 % of control
- T/C (dose: 28.0 mg/kg/injection, schedule: Q04DX003 (ip), vehicle: saline with Tween-80): 95 % of control

SMILES: COc1cc(C2c3cc4c(cc3C(O)C3COC(=O)C23)OCO4)cc(O)c1OC (stereo unspecified)
- T/C (dose: 2.0 mg/kg/injection, schedule: Q01DX009 (ip), vehicle: saline): 120 % of control
- T/C (dose: 4.0 mg/kg/injection, schedule: Q01DX009 (ip), vehicle: saline): 105 % of control

SMILES: COc1ccc(C)cc1CN1NC(=O)CC1=N
- T/C [11]: 100 % of control
- T/C (dose: 100.0 mg/kg/injection, schedule: Q04DX003 (ip), vehicle: Klucel (hydroxypropylcellulose) (HPC)): 100 % of control
- T/C (dose: 200.0 mg/kg/injection, schedule: Q01DX009 (ip), vehicle: Klucel (hydroxypropylcellulose) (HPC)): 109 % of control
- T/C (dose: 200.0 mg/kg/injection, schedule: Q04DX003 (ip), vehicle: Klucel (hydroxypropylcellulose) (HPC)): 122 % of control
- T/C (dose: 400.0 mg/kg/injection, schedule: Q01DX009 (ip), vehicle: Klucel (hydroxypropylcellulose) (HPC)): 100 % of control
- T/C (dose: 400.0 mg/kg/injection, schedule: Q04DX003 (ip), vehicle: Klucel (hydroxypropylcellulose) (HPC)): 94 % of control

SMILES: CS(=O)(=O)OCCSc1nc2ccccc2n1Cc1ccccc1
- T/C (dose: 25.0 mg/kg/injection, schedule: Q01DX001 (ip), vehicle: saline with Tween-80): 100 % of control
- T/C (dose: 50.0 mg/kg/injection, schedule: Q01DX001 (ip), vehicle: saline with Tween-80): 106 % of control
- T/C (dose: 100.0 mg/kg/injection, schedule: Q01DX001 (ip), vehicle: saline with Tween-80): 101 % of control

SMILES: COc1ccc2c(c1)CC[C@@H]1[C@@H]2CC[C@]2(C)/C(=N\O)CC[C@@H]12
- T/C [8]: 104 % of control
- T/C [9]: 109 % of control
- T/C (dose: 400.0 mg/kg/injection, schedule: Q01DX009 (ip), vehicle: saline with Tween-80): 90 % of control

SMILES: CC1OC2CC(=O)OC2C2=C1C(=O)c1c(O)c3c(c(O)c1C2=O)C1CC(O)C3(O)C(C)O1 (stereo unspecified)
- T/C (dose: 2.5 mg/kg/injection, schedule: Q01DX010 (ip), vehicle: saline): 115 % of control
- T/C (dose: 5.0 mg/kg/injection, schedule: Q01DX010 (ip), vehicle: saline): 115 % of control
- T/C (dose: 10.0 mg/kg/injection, schedule: Q01DX010 (ip), vehicle: saline): 115 % of control

SMILES: [N-]=[N+]=C1C=C(c2ccccc2)N=C1c1ccccc1
- T/C [1]: 109 % of control
- T/C [3]: 88 % of control

SMILES: Nc1[nH]c(=O)ncc1[N+](=O)[O-]
- T/C [12]: 102 % of control
- T/C [8]: 118 % of control

SMILES: CCCCOCNc1ncccn1
- T/C [12]: 100 % of control and 105 % of control
- T/C [8]: 98 % of control and 112 % of control
- T/C [9]: 100 % of control

SMILES: CC1(C)N=C(N)N=C(N)N1c1ccc(OCCOc2ccc(S(=O)(=O)F)cc2)c(Cl)c1
- T/C (dose: 12.5 mg/kg/injection, schedule: Q04DX003 (ip), vehicle: saline with Tween-80): 158 % of control
- T/C (dose: 13.0 mg/kg/injection, schedule: Q04DX003 (ip), vehicle: saline with Tween-80): 160 % of control
- T/C (dose: 20.0 mg/kg/injection, schedule: Q04DX003 (ip), vehicle: saline with Tween-80): 185 % of control
- T/C (dose: 25.0 mg/kg/injection, schedule: Q04DX003 (ip), vehicle: saline with Tween-80): 170 % of control
- T/C (dose: 30.0 mg/kg/injection, schedule: Q04DX003 (ip), vehicle: saline with Tween-80): 185 % of control
- T/C (dose: 33.0 mg/kg/injection, schedule: Q01DX009 (ip), vehicle: Klucel (hydroxypropylcellulose) (HPC)): 227 % of control
- T/C [10]: 154 % of control
- T/C [12]: 268 % of control
- T/C (dose: 50.0 mg/kg/injection, schedule: Q04DX003 (ip), vehicle: saline with Tween-80): 154 % of control and 162 % of control
- T/C (dose: 66.0 mg/kg/injection, schedule: Q04DX003 (ip), vehicle: saline with Tween-80): 180 % of control
- T/C (dose: 75.0 mg/kg/injection, schedule: Q01DX009 (ip), vehicle: Klucel (hydroxypropylcellulose) (HPC)): 163 % of control
- T/C (dose: 75.0 mg/kg/injection, schedule: Q04DX003 (ip), vehicle: saline with Tween-80): 170 % of control
- T/C [8]: 90 % of control
- T/C [6]: 180 % of control
- T/C (dose: 150.0 mg/kg/injection, schedule: Q04DX003 (ip), vehicle: saline with Tween-80): 232 % of control
- T/C [7]: 108 % of control

SMILES: [O-][Cl+3]([O-])([O-])O.[O-][n+]1c2ccccc2nc2ccccc21.[Zn+2]
- T/C [12]: 123 % of control

SMILES: [N-]=[N+]=NC(=O)C1(Br)CCC2c3ccccc3C([N+](=O)[O-])(C1)c1ccccc12 (stereo unspecified)
- T/C [4]: 95 % of control
- T/C [5]: 100 % of control
- T/C (dose: 400.0 mg/kg/injection, schedule: Q04DX003 (ip), vehicle: saline): 109 % of control
